From patent US8329149B2, “Topical lightening composition and uses thereof” (Avon Products, Inc., priority 2009, dated 2012)

Test system: B16 mouse melanoma cells
Assay: B16 inhibition assay (melanin synthesis, normalized to MTT cell viability)
Assay type: cell-based
Conditions: 7 days
Protocol: The B16 assay uses a cell line derived from mice with inhibition of tyrosinase as the end point. For the B16 assay, the active oxobutanoic acid tyrosinase inhibitors as disclosed herein in Table 1 were tested in a monolayer cell culture of B16 mouse melanoma cells. These cells are known to constitutively produce melanin and are a commonly utilized and accepted model system for monitoring the inhibition of melanin synthesis.
The B16 mouse melanoma cells were seeded (ATCC, cat. #: CRL-6475) into 96-well tissue culture-treated plates (BD Falcon) and treated with test actives diluted in DMEM without phenol red (Mediatech; cat. #: 17-205-CV) and examined for their ability to modulate pigment formation. Kojic acid was used as the positive control inhibitor. Cells were exposed to diluted test material or controls for 7 days. Following the treatment period, the level of pigment produced or melanin synthesized was quantified by reading the absorbance at 540 nm using a standard microplate reader (Tecan Group Ltd.).
After quantifying the amount of melanin, cell viability was determined using the MTT conversion method. The MTT conversion method measures the reduction of the MTT dye from a yellow colored, water-soluble, tetrazolium salt to a bluish-purple colored insoluble formazan precipitate by NAD(P)H-dependent microsomal dehydrogenase enzymes, which only function in viable cells. The intensity of the blue color is indicative of cell viability. After quantifying the amount of melanin pigment produced, the cells were exposed to MTT dye solution (1 mg/ml) for two to three hours. Formazan material was solubilized with reagent alcohol (95% ethanol: 5% isopropanol) and shaken on an orbital shaker for 15-30 minutes. MTT dye uptake and conversion by viable cells were determined by measuring the extracted formazan at 570 nm using a microplate reader. Total pigmentation was calculated, normalized to cell viability values and expressed as percent activity relative to control. The compounds A-H of Table 1 in a weight percent ranging from about 0.0002% to about 0.002% inhibited tyrosinase by a percent ranging from about 29% to about 87%. […]

Compound | B16 Results Percent inhibition of melanin (concentration 0.0001%) | B16 Results Percent inhibition of melanin (concentration 0.001%)
Cc1ccc(C(=O)CC(NCc2ccco2)C(=O)O)cc1 (stereo not drawn) [I, 2-(2-furanylmethylamino)-4-(4′-methylphenyl)-4-oxobutanoic acid] | −20% | −71%
COc1ccc(C(=O)CC(NCc2cccnc2)C(=O)O)cc1 (stereo not drawn) [J, 2-(3-pyridylmethylamino)-4-(4′-methoxyphenyl)-4-oxobutanoic acid] | −27.84% | −53.63%
Cc1ccc(C(=O)CC(NCc2ccccc2)C(=O)O)cc1 (stereo not drawn) [K, 2-(benzylamino)-4-(4′-methylphenyl)-4-oxobutanoic acid] | −46% | −67%
